Some results are limits rather than exact numbers.

This is an account of results in publication PMC9459403, “New inhibitors of cathepsin V impair tumor cell proliferation and elastin degradation and increase immune cell cytotoxicity” (Computational and Structural Biotechnology Journal, 2022).

Data set [1] is described as follows: Kinetic solubility. In kind it is physicochemical. The following applies: PBS pH 7.4 with 5 % DMSO, pH 7.4, aqueous with cosolvent or surfactant or cyclodextrin, kinetic from dmso stock; PBS with 5 % DMSO. On the procedure: The solubility of compound 7 was determined in buffer (PBS pH 7.4) containing 5 % DMSO. Serial dilutions of 7 were prepared in DMSO at concentrations of 4 mM, 2 mM, 1.5 mM, 1 mM, and 0.2 mM. The assay was performed in 96-well microplates in duplicate. Briefly, to 190 µL of buffer, 10 µL of the compound stock solution in DMSO was added. The plate was shaken and the absorbance at 620 nm was measured using a plate reader (Synergy H4, BioTek Instruments, Inc., Santa Clara, CA, USA) in area scan mode (5 × 5 measurements per well). The mean absorbance was then compared relative to the blank to determine the solubility of the compound at each concentration tested.

For data set [2], the target named is T1, Cathepsin V (Homo sapiens, UniProt O60911).
T1 construct: made in house; host or cells: Pichia pastoris
T1 sequence (O60911 114-334): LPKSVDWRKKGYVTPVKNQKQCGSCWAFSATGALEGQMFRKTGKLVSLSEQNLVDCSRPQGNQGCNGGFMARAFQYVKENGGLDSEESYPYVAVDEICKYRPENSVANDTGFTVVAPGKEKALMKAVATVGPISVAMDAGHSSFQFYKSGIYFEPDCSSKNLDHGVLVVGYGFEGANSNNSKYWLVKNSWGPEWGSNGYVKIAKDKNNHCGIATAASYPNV
In words: Determination of Ki values and mode of inhibition. In kind it is biochemical. Put shortly: (§1)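 Cathepsin V from Pichia and cathepsin L from E. coli were activated 5 min at 37 °C in acetate buffer pH 5.5 with cysteine, EDTA and PEG. Z-Phe-Arg-AMC cleavage was followed fluorimetrically at 0.5, 1 and 4 μM substrate against seven inhibitor levels up to 200 µM, in 5 % DMSO. Enzyme finals were 2.5 ng/mL (V) and 0.02 nM (L), and Ki was fitted by enzyme-kinetic analysis.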

Data set [3] addresses T2, human recombinant cathepsin L (Homo sapiens, UniProt P07711).
T2 construct: made in house; host or cells: Escherichia coli
Put plainly: Determination of Ki values and mode of inhibition. Type of data set: biochemical. The following applies: mean ± SD (n = 2). Put shortly: as §1

Data set [4] concerns TALL-104 cells. Put plainly: Cell viability assay (MTS). Type of data set: cell-based. The following applies: up to 10 μM, 24 h. On the procedure: (§2) The effect of compound 7 on the viability of NK-92, TALL-104, and K-562 cells was evaluated using the MTS [3-(4,5-dimethylthiazol-2-yl)-5-(3-carboxymetoxyphenyl)-2-(4-sulfophenyl)–2H-tetrazolium] colorimetric assay (CellTiter 96 Aqueous One Solution Cell Proliferation Assay, Promega, Madison, WI, USA). NK-92, TALL-104, and K-562 cells were seeded at 2.5 × 10^4, 1 × 10^5, and 1 × 10^4 cells/well, respectively, into a 96-well microplate and treated with inhibitors (2.5, 5, or 10 µM) or DMSO (0.1 %) for 24 h. After incubation, 10 µL of the reagent MTS was added to the wells, and the absorbance of formazan was measured at 492 nm on a Tecan Infinite M1000 (Mannedorf, Switzerland). Cell viability (%) was expressed as the ratio between absorbance in the presence of the compounds and in the presence of DMSO. All assays were performed in quadruplicate and repeated at least twice.

For data set [5], the system named is NK-92 cells. Put plainly: Cell viability assay (MTS). Type of data set: cell-based. As to conditions: up to 10 μM, 24 h. The procedure:
as §2

For data set [6], the system named is TALL-104 effector cells on target K-562 cells. Put plainly: Calcein AM release assay (cytotoxicity). Type of data set: cell-based, human. The following applies: effector cells treated 10 µM, 6 h. On the procedure: (§3) Effector cells (NK-92 or TALL-104; 1 × 10^6/ml) were treated with E-64d (10 µM) or compound 7 (10 µM) for 6 h. NK-92 cells were pre-treated with 1000 IU IL2/mL overnight prior to the addition of inhibitors. Effector cells were added to a 96-well U-bottom plate to achieve a selected effector-to-target ratio (E:T). Target K-562 cells were labelled with 15 µM Calcein-AM (Sigma) in serum-free RPMI 1640 medium for 30 min at 37 °C. Cells were then washed twice and resuspended in complete RPMI 1640 medium. Target cells (n = 5000) were added to the effectors. The plate was centrifuged at 200 × g for 1 min and incubated at 37 °C and 5 % CO2 for 4 h. After incubation, the plate was centrifuged at 700 × g for 5 min. The supernatant (50 µL) was transferred to a new microtiter plate to measure the fluorescence of the released Calcein-AM with a Tecan M1000 microtiter plate reader using 496 nm excitation and 516 nm emission filters. The percentage of cytotoxicity was calculated as follows: 100(test release-spontaneous release)/(total release-spontaneous release). Spontaneous release was measured in wells containing only target cells. For total release, 2 % Triton X-100 was added to the wells to achieve lysis of target cells. Lytic units (LU) were calculated using the inverse of the number of effector cells needed to lyse 30 % of the target cells multiplied by 100.

Data set [7] concerns NK-92 effector cells on target K-562 cells. In words: Calcein AM release assay (cytotoxicity). As to conditions: effector cells treated 10 µM, 6 h. In kind it is cell-based, human. The procedure: as §3
A short description of data set [8]: Aqueous stability (HPLC-based assay). Type of data set: physicochemical. As to conditions: 50 μM, 60 h. The procedure: HPLC analyses were performed as described under the Compound characterization section. The method used a Waters Acquity UPLC® HSS C18 SB column (2.1 × 50 mm, 1.8 µm) thermostated at 40 °C, injection volume, 10 µL; flow rate, 0.3 mL/min; detector λ, 280 nm; mobile phase A: 0.1 % TFA (v/v) in water; mobile phase B: MeCN. Method: 0–9 min, 5 % – 95 % B; 9 – 11 min, 95 % B; 11 – 11.5 min, 95 % - 5% B.
Compound 7 stock solution (1 mM) was prepared in DMSO, while internal standard (caffeine, 1 mM) was dissolved in buffer (PBS pH 7.4). The aqueous stability solution was prepared by mixing 1400 µL buffer, 400 µL MeCN, 100 µL internal standard stock solution, and 100 µL compound stock solution in a HPLC vial to give 50 μM compound, 50 μM internal standard, 20 % MeCN, and 5 % DMSO in buffer, which was injected immediately and then at hourly intervals for 60 h while being incubated at 37 °C. The analyte areas under curve (AUCs) were normalized on internal standard AUCs.

The test system of data set [9] is K-562 cells. Put plainly: Cell viability assay (MTS). Type of data set: cell-based, human. As to conditions: 24 h. On the procedure: as §2

T2 sequence (P07711 114-333): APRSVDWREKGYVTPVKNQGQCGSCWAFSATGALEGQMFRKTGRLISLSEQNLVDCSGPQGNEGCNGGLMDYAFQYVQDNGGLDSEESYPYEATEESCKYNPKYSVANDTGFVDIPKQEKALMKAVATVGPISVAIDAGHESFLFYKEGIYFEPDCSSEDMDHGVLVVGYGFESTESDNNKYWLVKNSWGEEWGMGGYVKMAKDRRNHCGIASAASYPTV

In the case of `O=C(NCc1cccc2ccccc12)NCC1CCN(C(=O)Oc2ccccc2)CC1` [Compound 7, Phenyl 4-((3-(naphthalen-1-ylmethyl)ureido)methyl)piperidine-1-carboxylate], in data set [1], the kinetic solubility was in the range of 75 to 100 µM. In addition, the “mode of inhibition of cathepsin V” value in data set [2] is reported as “competitive”. The same compound registered a Ki in data set [2] (mean ± SD (n = 2)) of 88.7 ± 10.2 µM. For the same compound, in data set [3], the “Cathepsin L Ki (µM)” value is “no inhibition and did not inhibit cathepsin L and n.i^f and n.i”; the “Cathepsin L Ki′ (µM)” value is “n.i^f”. Besides, the “viability of TALL-104 cells” value in data set [4] is given as “not significantly reduced”. Besides, in [5], the “viability of NK-92 cells” value is “not significantly reduced”. The “cytotoxicity of TALL-104 cells (target cell killing)” value in data set [6] was “significantly increased”. For the same compound, the “cytotoxicity of NK-92 cells (target cell killing)” value in data set [7] was “significantly increased”. Moreover, in [8] (PBS pH 7.4, 20 % MeCN, 5 % DMSO, 37 °C), the aqueous stability result was “stable for days”. Besides, the “difference between the last and the first timepoint (normalized AUC)” value in [8] (PBS pH 7.4, 37 °C, smaller than experimental error) is given as below 2%. Moreover, the “viability of K-562 cells” value in data set [9] (10 μM) was “slightly decreased”. Moreover, the “viability of K-562 cells” value in data set [9] (up to 5 μM) is reported as “not decreased”.
